Here are results for 29 compounds from patent publication US12324802B2, “Modulators of cystic fibrosis transmembrane conductance regulator” (Vertex Pharmaceuticals Incorporated, priority 2020, dated 2025).

Each structure is given as a SMILES string.

T1 sequence (P13569 with tags, fused parts or gaps DEL508-508): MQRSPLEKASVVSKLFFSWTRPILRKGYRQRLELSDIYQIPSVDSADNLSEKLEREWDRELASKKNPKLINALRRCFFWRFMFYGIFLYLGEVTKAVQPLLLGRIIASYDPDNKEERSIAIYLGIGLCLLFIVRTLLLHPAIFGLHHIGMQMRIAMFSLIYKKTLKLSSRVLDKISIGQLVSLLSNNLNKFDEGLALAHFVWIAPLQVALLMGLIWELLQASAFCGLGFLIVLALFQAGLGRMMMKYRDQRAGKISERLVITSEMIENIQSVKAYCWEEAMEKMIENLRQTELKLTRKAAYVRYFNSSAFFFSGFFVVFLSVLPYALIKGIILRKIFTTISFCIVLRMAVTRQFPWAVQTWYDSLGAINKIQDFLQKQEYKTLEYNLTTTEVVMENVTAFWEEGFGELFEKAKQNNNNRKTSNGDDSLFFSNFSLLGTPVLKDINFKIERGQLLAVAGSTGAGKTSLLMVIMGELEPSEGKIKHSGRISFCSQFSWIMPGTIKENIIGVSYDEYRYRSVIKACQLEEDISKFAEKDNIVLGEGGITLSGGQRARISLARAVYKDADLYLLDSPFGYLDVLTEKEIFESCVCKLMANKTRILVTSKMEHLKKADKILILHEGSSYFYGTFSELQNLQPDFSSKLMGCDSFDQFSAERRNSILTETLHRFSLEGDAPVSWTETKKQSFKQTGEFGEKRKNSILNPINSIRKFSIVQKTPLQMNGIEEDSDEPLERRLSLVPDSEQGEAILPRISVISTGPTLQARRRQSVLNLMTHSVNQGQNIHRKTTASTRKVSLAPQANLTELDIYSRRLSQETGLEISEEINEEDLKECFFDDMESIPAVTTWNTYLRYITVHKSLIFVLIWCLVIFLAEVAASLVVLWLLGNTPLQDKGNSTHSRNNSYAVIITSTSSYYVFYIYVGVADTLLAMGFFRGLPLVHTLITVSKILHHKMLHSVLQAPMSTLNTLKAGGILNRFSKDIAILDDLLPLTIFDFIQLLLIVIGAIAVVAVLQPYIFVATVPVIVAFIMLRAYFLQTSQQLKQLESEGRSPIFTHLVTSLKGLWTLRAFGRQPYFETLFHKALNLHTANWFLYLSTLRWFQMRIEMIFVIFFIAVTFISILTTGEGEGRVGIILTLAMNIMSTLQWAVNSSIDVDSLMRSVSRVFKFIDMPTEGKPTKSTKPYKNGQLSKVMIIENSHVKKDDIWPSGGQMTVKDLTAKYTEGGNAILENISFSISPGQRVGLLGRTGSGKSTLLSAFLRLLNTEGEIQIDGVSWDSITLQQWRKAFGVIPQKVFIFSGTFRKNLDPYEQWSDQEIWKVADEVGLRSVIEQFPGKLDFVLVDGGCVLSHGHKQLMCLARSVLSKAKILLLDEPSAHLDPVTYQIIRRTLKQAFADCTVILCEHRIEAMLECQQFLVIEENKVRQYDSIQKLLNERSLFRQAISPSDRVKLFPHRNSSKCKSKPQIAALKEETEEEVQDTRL

The assay has as its target T1, CFTR (F508del/MF-HBE cells) (Homo sapiens, UniProt P13569, DEL508-508).
T1 construct: human bronchial epithelial (HBE) cells derived from CF subjects heterozygous for F508del and a minimal function CFTR mutation; endogenous in cells; host or cells: primary human bronchial epithelial cells from CF subjects (F508del/MF genotype)
In words: Ussing chamber assay of CFTR-mediated short-circuit currents (identification of potentiator compounds). The format is cell-based. Conditions: CFTR-mediated ISC in F508del/MF-HBE cells; incubated 18-24 hours at 37° C. with 10 μM (14S)-8-[3-(2-{dispiro[2.0.2.1]heptan-7-yl}ethoxy)-1H-pyrazol-1-yl]-...-2,2,4-trione, 20% human serum. Summed up: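 Short-circuit current was voltage-clamped at 0 mV and 37 °C in pH 7.4 HEPES buffers, with amiloride (30 μM) on the apical side. The CFTR component was defined as forskolin (20 μM) peak minus residual current after BPO/GlyH-101/CFTRinh-172 at 20 μM each. Cells had been pretreated 18–24 h with potentiator concentrations and 10 μM corrector in 20% human serum, kept throughout the measurement.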
As to `Nc1cc(C(F)(F)F)c2nc1-c1nnc(o1)C(O)(C(F)(F)F)CCCCCCC(=O)N2` (single isomer, unassigned) [Compound 107, 18-amino-6-hydroxy-6,16-bis(trifluoromethyl)-20-oxa-3,4,14,19-tetrazatricyclo[13.3.1.12,5]icosa-1(19),2,4,15,17-pentaen-13-one], the concentration giving a half-maximal response (EC50) was above 1000 nM.

In the case of `CCNc1cc(C(F)(F)F)c2nc1-c1nnc(o1)[C@](O)(C(F)(F)F)CCCCC[C@@H]1CCCN21` [Compound 16, (6S,12R)-20-(ethylamino)-6,18-bis(trifluoromethyl)-22-oxa-3,4,16,21-tetraazatetracyclo[15.3.1.12,5.012,16]docosa-1(21),2,4,17,19-pentaen-6-ol], the EC50 is above 1000 nM.

With `CC1CCCCCC(O)(C(F)(F)F)C2=NN=C(O2)c2nc(c(C(F)(F)F)cc2N)N1` (single isomer, unassigned) [Compound 66, 17-amino-12-methyl-6,15-bis(trifluoromethyl)-19-oxa-3,4,13,18-tetrazatricyclo[12.3.1.12,5]nonadeca-1(18),2,4,14,16-pentaen-6-ol], the concentration giving a half-maximal response (EC50) was below 500 nM.

On to `CN1CCCCCCC(O)(c2ccccc2)C2=NN=C(O2)c2nc1c(C(F)(F)F)cc2N` (single isomer, unassigned) [Compound 77, 17-amino-13-methyl-6-phenyl-15-(trifluoromethyl)-19-oxa-3,4,13,18-tetrazatricyclo[12.3.1.12,5]nonadeca-1(18),2,4,14,16-pentaen-6-ol], for which the half-maximal effective concentration (EC50) is above 1000 nM.

Consider `CC1(C)CCCCC(O)C(O)(C(F)(F)F)C2=NN=C(O2)c2nc(c(C(F)(F)F)cc2N)N1` (single isomer, unassigned) [Compound 195, 17-amino-12,12-dimethyl-6,15-bis(trifluoromethyl)-19-oxa-3,4,13,18-tetrazatricyclo[12.3.1.12,5]nonadeca-1(18),2,4,14,16-pentaene-6,7-diol], for which the EC50 was above 1000 nM.

In the case of `CCOC(=O)C1CCCCCC(O)(C(F)(F)F)C2=NN=C(O2)c2nc(c(C(F)(F)F)cc2N)N1` (single isomer, unassigned) [Compound 97, ethyl 17-amino-6-hydroxy-6,15-bis(trifluoromethyl)-19-oxa-3,4,13,18-tetrazatricyclo[12.3.1.12,5]nonadeca-1(18),2,4,14,16-pentaene-12-carboxylate], the 50% effective concentration (EC50) is above 1000 nM.

As for `CN1CCCCCCC(C)(O)C2=NN=C(O2)c2nc1c(C(F)(F)F)cc2N` (single isomer, unassigned) [Compound 62, 17-amino-6,13-dimethyl-15-(trifluoromethyl)-19-oxa-3,4,13,18-tetrazatricyclo[12.3.1.12,5]nonadeca-1(17),2,4,14(18),15-pentaen-6-ol], the EC50 is below 500 nM.

For the compound `COc1cc(N)c2nc1N1CCC[C@H]1CCCCCC(O)(C(F)(F)F)C1=NN=C2O1` (single isomer, unassigned) [Compound 115], the EC50 was above 1000 nM.

With `COc1cc(N)c2nc1N1CCC[C@H]1CCCCCC(O)(C(F)(F)F)C1=NN=C2O1` (single isomer, unassigned) [Compound 114], the 50% effective concentration (EC50) was below 500 nM.

Take `Nc1cc(Cc2ccccc2)c2nc1-c1nnc(o1)C(O)(C(F)(F)F)CCCCC[C@@H]1CCCN21` (mixture of isomers) [Compound 137, (12R)-20-amino-18-benzyl-6-(trifluoromethyl)-22-oxa-3,4,16,21-tetraazatetracyclo[15.3.1.12,5.012,16]docosa-1(21),2,4,17,19-pentaen-6-ol]: the concentration giving a half-maximal response (EC50) was below 500 nM.

Take `Nc1cc(C(F)(F)F)c2nc1-c1nnc(o1)[C@](O)(C(F)(F)F)c1cc(ccc1F)CCC[C@@H]1CCCN21` [Compound 59, (6S,15R)-23-amino-8-fluoro-6,21-bis(trifluoromethyl)-26-oxa-3,4,19,24-tetraazapentacyclo[18.3.1.12,5.17,11.015,19]hexacosa-1(24),2,4,7(25),8,10,20,22-octaen-6-ol]: the EC50 is below 500 nM.

As for `CCOC(=O)C1CCCCCC(O)(C(F)(F)F)C2=NN=C(O2)c2nc(c(C(F)(F)F)cc2N)N1` (single isomer, unassigned) [Compound 95, ethyl 17-amino-6-hydroxy-6,15-bis(trifluoromethyl)-19-oxa-3,4,13,18-tetrazatricyclo[12.3.1.12,5]nonadeca-1(18),2,4,14,16-pentaene-12-carboxylate], the EC50 is below 500 nM.

Take `Nc1cc(C(F)(F)F)c2nc1-c1nnc(o1)[C@@](O)(C(F)(F)F)CCCCCC(C(=O)O)N2` (single isomer, unassigned) [Compound 156]: the EC50 was below 500 nM.

With `CC1(C)CCCCC(O)(C(F)(F)F)C2=NN=C(O2)c2nc(c(C(F)(F)F)cc2N)NC1` (single isomer, unassigned) [Compound 172, 17-amino-11,11-dimethyl-6,15-bis(trifluoromethyl)-19-oxa-3,4,13,18-tetrazatricyclo[12.3.1.12,5]nonadeca-1(18),2,4,14,16-pentaen-6-ol], the EC50 was below 500 nM.

For `CNc1cc(C(F)(F)F)c2nc1-c1nnc(o1)[C@@](O)(C(F)(F)F)CCCCC[C@@H]1CCCN21` [Compound 13, (6R,12R)-20-(methylamino)-6,18-bis(trifluoromethyl)-22-oxa-3,4,16,21-tetraazatetracyclo[15.3.1.12,5.012,16]docosa-1(21),2,4,17,19-pentaen-6-ol], the EC50 was below 500 nM.

`Nc1cc(C(F)(F)F)c2nc1-c1nnc(o1)[C@@](O)(C(F)(F)F)CCCCCC1(CCOC1)N2` (single isomer, unassigned) [Compound 207]: the concentration giving a half-maximal response (EC50) is below 500 nM.

As for `Nc1cc(C(F)(F)F)c2nc1-c1nnc(o1)C(O)(C(F)(F)F)CCCCCC1CCS(=O)(=O)N21` (single isomer, unassigned) [Compound 111, 20-amino-6-hydroxy-6,18-bis(trifluoromethyl)-22-oxa-15λ6-thia-3,4,16,21-tetraazatetracyclo[15.3.1.12,5.012,16]docosa-1(21),2,4,17,19-pentaene-15,15-dione], the EC50 is above 1000 nM.

For the compound `CC(C)C1CCCCC[C@](O)(C(F)(F)F)C2=NN=C(O2)c2nc(c(C(F)(F)F)cc2N)N1` (single isomer, unassigned) [Compound 179], the concentration for a half-maximal effect (EC50) was below 500 nM.

For `CC1(C)CCCCC[C@](O)(C(F)(F)F)C2=NN=C(O2)c2nc(c(C(F)(F)F)cc2N)N1` [Compound 163, (6R)-17-amino-12,12-dimethyl-6,15-bis(trifluoromethyl)-19-oxa-3,4,13,18-tetrazatricyclo[12.3.1.12,5]nonadeca-1(18),2,4,14,16-pentaen-6-ol], the EC50 was below 500 nM.

`Nc1cc(C(F)(F)F)c2nc1-c1nnc(o1)C(O)(C(F)(F)F)CCCCCC1CCS(=O)(=O)N21` (single isomer, unassigned) [Compound 112, 20-amino-6-hydroxy-6,18-bis(trifluoromethyl)-22-oxa-15λ6-thia-3,4,16,21-tetraazatetracyclo[15.3.1.12,5.012,16]docosa-1(21),2,4,17,19-pentaene-15,15-dione]: the EC50 fell in the range of 500 to 1000 nM.

As for `CN1CCC=CCCC(=O)C2=NN=C(O2)c2nc1c(C(F)(F)F)cc2N` (mixture of isomers) [Compound 75, 17-amino-13-methyl-15-(trifluoromethyl)-19-oxa-3,4,13,18-tetrazatricyclo[12.3.1.12,5]nonadeca-1(18),2,4,9,14,16-hexaen-6-one], the EC50 was below 500 nM.

`Nc1cc(C(F)(F)F)c2nc1-c1nnc(o1)C(O)(C(F)(F)F)c1cccc(n1)CCC[C@@H]1CCCN21` (single isomer, unassigned) [Compound 83]: the EC50 is 500 to 1000 nM.

Consider `Nc1cc(C(F)(F)F)c2nc1-c1nnc(o1)[C@@](O)(C(F)(F)F)CCCCC[C@@H]1CCCN21` [Compound 4, (6R,12R)-20-amino-6,18-bis(trifluoromethyl)-22-oxa-3,4,16,21-tetraazatetracyclo[15.3.1.12,5.012,16]docosa-1(21),2,4,17,19-pentaen-6-ol], for which the 50% effective concentration (EC50) is below 500 nM.

Turning to `Nc1cc(C(F)(F)F)c2nc1-c1nnc(o1)[C@@](O)(C(F)(F)F)CCCCCC(C(=O)N1CCCC1)N2` (stereo partly drawn) [Compound 154, [(6R)-17-amino-6-hydroxy-6,15-bis(trifluoromethyl)-19-oxa-3,4,13,18-tetrazatricyclo[12.3.1.12,5]nonadeca-1(18),2,4,14,16-pentaen-12-yl]-pyrrolidin-1-yl-methanone], the 50% effective concentration (EC50) was above 1000 nM.

For the compound `N#Cc1cc(N)c2nc1N1CCC[C@H]1CCCCCC(O)(C(F)(F)F)C1=NN=C2O1` (single isomer, unassigned) [Compound 81], the EC50 is above 1000 nM.

As for `Nc1cc(C(F)(F)F)c2nc1-c1nnc(o1)C(O)(C1CCOCC1)CCCCC[C@@H]1CCCN21` (single isomer, unassigned) [Compound 88], the EC50 was below 500 nM.

Take `COC(=O)c1cc(N)c2nc1N1CCC[C@H]1CCCCCC(O)(C(F)(F)F)C1=NN=C2O1` (single isomer, unassigned) [Compound 169]: the EC50 was above 1000 nM.

As for `CC1(C)CCC[C@H](O)C[C@](O)(C(F)(F)F)C2=NN=C(O2)c2nc(c(C(F)(F)F)cc2N)N1` [Compound 188, (6R,8S)-17-amino-12,12-dimethyl-6,15-bis(trifluoromethyl)-19-oxa-3,4,13,18-tetrazatricyclo[12.3.1.12,5]nonadeca-1(18),2,4,14,16-pentaene-6,8-diol], the concentration for a half-maximal effect (EC50) is below 500 nM.

Regarding `CC(C)N1CCCCCCC(O)(C(F)(F)F)C2=NN=C(O2)c2nc1c(C(F)(F)F)cc2N` (single isomer, unassigned) [Compound 52, 17-amino-13-isopropyl-6,15-bis(trifluoromethyl)-19-oxa-3,4,13,18-tetrazatricyclo[12.3.1.12,5]nonadeca-1(18),2,4,14,16-pentaen-6-ol], the EC50 is below 500 nM.
